Results from patent US20260199369A1, “COMPOUNDS FOR THE TREATMENT OF NEUROMUSCULAR DISORDERS” (NMD PHARMA A/S, priority 2022, published 2026).
pEC50: −log10 of the molar value. Like-named read-outs stand apart in the source and are kept apart here.

Assays:
CIC-1 ion channel = biological target: T1, CIC-1 ion channel (Rattus norvegicus, UniProt P35524); test: Electrophysiological measurement of compound inhibition of CIC-1 in rat muscle (Gm, three micro-electrodes technique); format: cell-based; conditions: Gm in fibres of whole rat soleus muscle, four increasing compound concentrations; read-out: Potency Range (EC50, inhibition of CIC-1 ion channel)
T1 construct: from tissue; host or cells: whole soleus muscle of 12-14 week old Wistar rats
T1 sequence (P35524 1-994): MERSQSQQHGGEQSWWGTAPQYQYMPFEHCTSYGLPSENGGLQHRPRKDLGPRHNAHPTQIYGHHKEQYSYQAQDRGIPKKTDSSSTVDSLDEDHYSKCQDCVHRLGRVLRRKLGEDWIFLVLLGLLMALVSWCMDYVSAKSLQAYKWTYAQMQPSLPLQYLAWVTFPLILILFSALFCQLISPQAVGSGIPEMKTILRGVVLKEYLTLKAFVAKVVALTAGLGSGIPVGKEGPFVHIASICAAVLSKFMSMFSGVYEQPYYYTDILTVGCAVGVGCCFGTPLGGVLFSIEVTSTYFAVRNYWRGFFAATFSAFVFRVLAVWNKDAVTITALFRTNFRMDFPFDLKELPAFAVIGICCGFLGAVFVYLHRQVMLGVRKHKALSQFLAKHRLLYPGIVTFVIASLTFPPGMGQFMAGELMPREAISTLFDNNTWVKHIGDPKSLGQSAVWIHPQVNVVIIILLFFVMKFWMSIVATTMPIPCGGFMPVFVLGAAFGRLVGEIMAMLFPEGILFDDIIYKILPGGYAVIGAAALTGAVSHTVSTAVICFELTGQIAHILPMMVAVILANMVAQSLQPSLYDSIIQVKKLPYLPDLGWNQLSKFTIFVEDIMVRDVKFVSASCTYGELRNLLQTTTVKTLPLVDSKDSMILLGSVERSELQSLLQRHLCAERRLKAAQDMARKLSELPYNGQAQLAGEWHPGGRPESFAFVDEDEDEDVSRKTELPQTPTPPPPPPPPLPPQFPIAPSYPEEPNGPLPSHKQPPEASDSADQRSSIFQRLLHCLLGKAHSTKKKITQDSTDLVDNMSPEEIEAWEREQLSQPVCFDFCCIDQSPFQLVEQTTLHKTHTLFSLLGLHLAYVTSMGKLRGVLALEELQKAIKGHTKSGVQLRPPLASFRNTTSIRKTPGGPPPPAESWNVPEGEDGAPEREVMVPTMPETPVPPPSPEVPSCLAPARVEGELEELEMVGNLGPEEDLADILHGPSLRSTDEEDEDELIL
Procedure: Apparent CIC-1 affinity was reported by the concentration of compound at which 50% of the compound's full inhibition of CIC-1 was observed (EC50) (see also WO2019/115777).
Experimentally, Gm was measured in individual fibres of whole rat soleus muscles using a three micro-electrodes technique described in this example and in full detail elsewhere (Riisager et al., Determination of cable parameters in skeletal muscle fibres during repetitive firing of action potentials. Journal of Physiology, 2014, 592, 4417-4429). Briefly, intact rat soleus muscles were dissected out from 12-14 week old Wistar rats and placed in an experimental chamber that was perfused with a standard Krebs Ringer solution containing 122 mM NaCl, 25 mM NaHCO3, 2.8 mM KCl, 1.2 mM KH2PO4, 1.2 mM MgSO4, 1.3 mM CaCl2), 5.0 mM D-glucose. During experiments, the solution was kept at approx. 30° C. and continuously equilibrated with a mixture of 95% O2 and 5% CO2, pH ~7.4. The experimental chamber was placed in Nikon upright microscope that was used to visualize individual muscle fibres and the three electrodes (glass pipettes filled with 2 M potassium citrate). For Gm measurements, the electrodes were inserted into the same fibre with known inter-electrode distances of 0.35-0.5 mm (V1-V2, X1) and 1.1-1.5 mm (V1-V3, X3). The membrane potential of the impaled muscle fibre was recorded by all electrodes. Two of the electrodes were furthermore used to inject 50 ms current pulses of −30 nA. […] The steady state voltage deflection at each distance was divided by the magnitude of current injected (−30 nA) and the resulting transfer resistances were plotted against inter-electrode distance and the data was fitted to a mono-exponential function from which Gm could be calculated using linear cable theory.
To establish a dose response relationship, Gm was first determined in 10 muscle fibres in the absence of compound and then at four increasing compound concentrations with Gm determinations in 5-10 fibres at each concentration. The average Gm values at each concentration were plotted against compound concentration and the data was fitted to sigmoidal function to obtain an EC50 value.

[1] = test system: isolated rat soleus muscles; test: Measurement of force in an in vitro model: recovery of contractile force of isolated rat soleus nerve-muscle preparation after tubocurarine; conditions: 40 min, read-out: Point increase (%): percentage increase of initial force that was restored; for activation at 50 µM: 50 μM of test compound
Procedure: The current disclosure relates to compounds that inhibit CIC-1 ion channels and increase muscle excitability and thereby improve muscle function in clinical conditions where muscle activation is failing. Such conditions result in loss of contractile function of skeletal muscle, weakness and excessive fatigue. In this series of experiments the compounds were tested for their ability to restore contractile function of isolated rat muscle when the neuromuscular transmission had been compromised akin to neuromuscular disorders.
Experimentally, soleus muscles from 4-5 wk old rats were isolated with the motor nerve remaining attached. The nerve-muscle preparations were mounted in experimental setups that enabled electrical stimulation of the motor nerve. Stimulation of the motor nerve led to activation of the muscle fibres and ensuing force production that was recorded. The nerve-muscle preparations were also in these experiments incubated in the standard Krebs Ringer (see example 15) and the solution was heated to 30° C. and continuously equilibrated with a mixture of 95% O2 and 5% CO2, pH ~7.4.
After mounting the nerve-muscle preparation in the experimental setup, the contractile function of the muscle was initially assessed under the control conditions. Sub-maximal concentration of tubocurarine (115 nM), an acetylcholine receptor antagonist, was then added to the experimental bath to impose partial inhibition of the ability of the motor nerve to activate the muscle fibres. The experimental condition mimics the failing neuromuscular transmission in a range of neuromuscular disorders. After addition of tubocurarine the contractile force declined over the next 90 minutes to 10-50% of the control force. The test compound was then added to obtain the required compound concentration in the bath and the contractile force recovered was measured. To quantify the ability of the compound to restore force the percentage of the initial force that was restored was determined after 40 mins of compound exposure and the point increase is reported in Tables 3 to 7.

[2] = tubocurarine 115 nM, after 40 mins of compound exposure
[3] = 10 μM of test compound, tubocurarine 115 nM, after 40 mins of compound exposure
[4] = 25 μM of test compound, tubocurarine 115 nM, after 40 mins of compound exposure

`COc1c(Cl)cc2c(c1C(=O)O)OCCO2` [Compound A-1, 7-Chloro-6-methoxy-2,3-dihydro-1,4-benzodioxine-5-carboxylic acid] was tested. Which pEC50 (CIC-1 ion channel) did it give?
The pEC50 was 4.82 to 5.30.

What about the activation at 50 µM [1, 2] of the same compound?
The activation at 50 µM was 31%.

`COc1c(Cl)cc2c(c1C(=O)O)OCCN2C` [Compound A-2, 6-Chloro-7-methoxy-4-methyl-3,4-dihydro-2H-1,4-benzoxazine-8-carboxylic acid] was tested. Which pEC50 (CIC-1 ion channel) did it give?
The pEC50 was 6.00 to 6.70.

And the activation at 10 µM [1, 3]?
Its activation at 10 µM is 32%.

Which results are given for `CN1CCOc2cc(Cl)c(F)c(C(=O)O)c21` [Compound A-3, 7-Chloro-6-fluoro-4-methyl-3,4-dihydro-2H-1,4-benzoxazine-5-carboxylic acid]?
pEC50 (CIC-1 ion channel): 5.30 to 6.00; activation at 10 µM [1]: 41%

What does the source list for `CN1CCOc2c1cc(F)c(Cl)c2C(=O)O` [Compound A-4, 7-Chloro-6-fluoro-4-methyl-3,4-dihydro-2H-1,4-benzoxazine-8-carboxylic acid]?
pEC50 (CIC-1 ion channel): 5.30 to 6.00; activation at 10 µM [1, 3]: 36%

How did the pEC50 (CIC-1 ion channel) turn out when `O=C(O)c1c(F)cc(Cl)c2c1OCCN2` [Compound A-5, 5-Chloro-7-fluoro-3,4-dihydro-2H-1,4-benzoxazine-8-carboxylic acid] was run?
The pEC50 was 4.82 to 5.30.

And the activation at 50 µM [1, 2]?
The activation at 50 µM was 44%.

What does the source list for `O=C(O)c1c(F)c(Cl)cc2c1OCCN2` [Compound A-6, 6-Chloro-7-fluoro-3,4-dihydro-2H-1,4-benzoxazine-8-carboxylic acid]?
pEC50 (CIC-1 ion channel): 4.82 to 5.30; activation at 10 µM [1, 3]: 19%

`CN1CCOc2c1cc(Cl)c(F)c2C(=O)O` [Compound A-7, 6-Chloro-7-fluoro-4-methyl-3,4-dihydro-2H-1,4-benzoxazine-8-carboxylic acid] was tested. Which pEC50 (CIC-1 ion channel) did it give?
Its pEC50 is 6.00 to 6.70.

Which results are given for `CN1CCN(C)c2c1cc(Cl)c(F)c2C(=O)O` [Compound A-8, 7-Chloro-6-fluoro-1,4-dimethyl-1,2,3,4-tetrahydroquinoxaline-5-carboxylic acid]?
pEC50 (CIC-1 ion channel): 5.30 to 6.00; activation at 10 µM [1, 3]: 26%

Which results are given for `CN1CC(C)(C)Oc2c1cc(Cl)c(F)c2C(=O)O` [Compound A-9, 6-Chloro-7-fluoro-2,2,4-trimethyl-3,4-dihydro-2H-1,4-benzoxazine-8-carboxylic acid]?
pEC50 (CIC-1 ion channel): 5.30 to 6.00; activation at 10 µM [1, 3]: 37%

How did the pEC50 (CIC-1 ion channel) turn out when `CN1CCCOc2c1cc(Cl)c(F)c2C(=O)O` [Compound A-13, 7-Chloro-8-fluoro-5-methyl-2,3,4,5-tetrahydro-1,5-benzoxazepine-9-carboxylic acid] was run?
Its pEC50 is 5.30 to 6.00.

And the activation at 10 µM [1, 3]?
The activation at 10 µM was 30%.

How did the pEC50 (CIC-1 ion channel) turn out when `CC(C)CCN1CCOc2c1cc(Cl)c(F)c2C(=O)O` [Compound A-17, 6-chloro-7-fluoro-4-(3-methylbutyl)-3,4-dihydro-2H-1,4-benzoxazine-8-carboxylic acid] was run?
The pEC50 was 4.82 to 5.30.

And the activation at 50 µM [1, 2]?
The activation at 50 µM was 29%.

`CCN1CCOc2c1cc(Cl)c(F)c2C(=O)O` [Compound A-18, 6-Chloro-4-ethyl-7-fluoro-3,4-dihydro-2H-1,4-benzoxazine-8-carboxylic acid] was tested. Which pEC50 (CIC-1 ion channel) did it give?
Its pEC50 is 5.30 to 6.00.

What about the activation at 10 µM [1, 3] of the same compound?
The activation at 10 µM was 34%.

What does the source list for `CN1CCSc2c1cc(Cl)c(F)c2C(=O)O` [Compound A-19, 6-chloro-7-fluoro-4-methyl-3,4-dihydro-2H-1,4-benzothiazine-8-carboxylic acid]?
pEC50 (CIC-1 ion channel): 5.30 to 6.00; activation at 10 µM [1, 3]: 28%

How did the pEC50 (CIC-1 ion channel) turn out when `CCCN1CCOc2c1cc(Cl)c(F)c2C(=O)O` [Compound A-21, 6-Chloro-7-fluoro-4-propyl-3,4-dihydro-2H-1,4-benzoxazine-8-carboxylic acid] was run?
Its pEC50 is 5.30 to 6.00.

And the activation at 25 µM [1, 4]?
Its activation at 25 µM is 29%.

`CCN1CCOc2c1cc(Cl)c(OC)c2C(=O)O` [Compound A-28, 6-Chloro-4-ethyl-7-methoxy-3,4-dihydro-2H-1,4-benzoxazine-8-carboxylic acid] was tested. Which pEC50 (CIC-1 ion channel) did it give?
Its pEC50 is 6.00 to 6.70.

And the activation at 25 µM [1]?
Its activation at 25 µM is 36%.

`COc1c(Cl)cc2c(c1C(=O)O)SCCN2C` [Compound A-29, 6-Chloro-7-methoxy-4-methyl-3,4-dihydro-2H-1,4-benzothiazine-8-carboxylic acid] was tested. Which pEC50 (CIC-1 ion channel) did it give?
The pEC50 was 6.00 to 6.70.

And the activation at 10 µM [1, 3]?
The activation at 10 µM was 43%.

How did the pEC50 (CIC-1 ion channel) turn out when `COc1c(F)cc2c(c1C(=O)O)OCCN2C` [Compound A-30, 6-Fluoro-7-methoxy-4-methyl-3,4-dihydro-2H-1,4-benzoxazine-8-carboxylic acid] was run?
Its pEC50 is 6.00 to 6.70.

And the activation at 10 µM [1]?
The activation at 10 µM was 39%.

`COc1c(Cl)cc2c(c1C(=O)O)OCCN2Cc1ccsc1` [Compound A-36, 6-Chloro-7-methoxy-4-[(thiophen-3-yl)methyl]-3,4-dihydro-2H-1,4-benzoxazine-8-carboxylic acid] was tested. Which pEC50 (CIC-1 ion channel) did it give?
Its pEC50 is 5.30 to 6.00.

And the activation at 25 µM [1, 4]?
Its activation at 25 µM is 36%.

With `O=C(O)c1c(F)c(Cl)cc2c1N(Cc1ccsc1)CCO2` [Compound A-54, 7-Chloro-6-fluoro-4-[(thiophen-3-yl)methyl]-3,4-dihydro-2H-1,4-benzoxazine-5-carboxylic acid] as the compound, how does the pEC50 (CIC-1 ion channel) read?
Its pEC50 is 6.00 to 6.70.

What about the activation at 10 µM [1, 3] of the same compound?
Its activation at 10 µM is 28%.

With `COc1ccc(CN2CCOc3cc(Cl)c(F)c(C(=O)O)c32)cc1` [Compound A-58, 7-Chloro-6-fluoro-4-[(p-methoxyphenyl)methyl]-3,4-dihydro-2H-1,4-benzoxazine-5-carboxylic acid] as the compound, how does the pEC50 (CIC-1 ion channel) read?
Its pEC50 is 6.00 to 6.70.

What about the activation at 10 µM [1, 3] of the same compound?
Its activation at 10 µM is 35%.

`Cc1ccc(CN2CCOc3cc(Cl)c(F)c(C(=O)O)c32)cc1` [Compound A-60, 7-Chloro-6-fluoro-4-[(p-tolyl)methyl]-3,4-dihydro-2H-1,4-benzoxazine-5-carboxylic acid] was tested. Which pEC50 (CIC-1 ion channel) did it give?
Its pEC50 is 6.00 to 6.70.

And the activation at 10 µM [1, 3]?
Its activation at 10 µM is 17%.
